Reference: patent US20250367099A1, “UROLITHIN COMBINATIONS” (priority 2024, published 2025)

Legend:
C2C12 myotubes = assay: Fatty acid oxidation / mitochondrial respiration analysis on C2C12 myotubes (Seahorse XF96); assay type: cell-based, Mouse; details: UA 50 uM, Astaxanthin 20 uM; for induced mitochondrial respiration / Relative Change (%) Compared to DMSO 0.1%: C2C12 myotubes; for induced mitochondrial respiration: 24 hours treatment, vs DMSO; for % increase in maximal mitochondrial respiration: Table 3: change in maximal mitochondrial respiration vs DMSO, 24 hours; for Relative Change (%) Compared to DMSO 0.1%: Table 4
Procedure: Fatty acid oxidation analysis on C2C12 myotubes was measured with a Seahorse XF96 extracellular flux analyzer. […] were seeded at 8,000 cells/well in an XF96 cell culture microplate. Once cells reached confluence, they were differentiated with DMEM (Gibco, 31966047) supplemented with 2% Horse serum, 1% PenStrep and 1% Hepes for 5 days. Cells were treated with UA 50 uM (Amazentis) and Astaxanthin 20 uM (MedChemExpress, LKT-A7476) for 24 hours in substrate-limited media (Gibco, A1443001) supplemented with 0.5 mM glucose, 1 mM glutamine, 1% Oleic acid and 0.5 mM L-Carnitine. Maximal respiration was monitored by injection of 3 µM FCCP in the cartridge. Prior to the assay, cells were incubated in a Fatty acid oxidation medium (111 mM NaCl, 4.7 mM KCl, 1.25 mM CaCI2, 2 mM MgSO4, 1.2 mM NaH2PO4, 5 mM L-Carnitine, 5 mM Hepes, 2.5 mM Glucose) for 20 min, solution must be adjusted to pH 7.4 at 37° C. Mouse muscle C2C12 myotubes were treated for 24 hours with either Urolithin A alone, Astaxanthin alone or a combination of both compounds. Urolithin A alone induced mitochondrial respiration (+8.5%, Table 4). Astaxanthin alone induced mitochondrial respiration (+3.2% Table.4).

interleukin 6 (IL-6) = assay: Cytokine mix (CTX)-induced IL-6 release in normal human dermal fibroblasts (ELISA); assay type: cell-based; details: Zinc 100 uM; for Relative Change (%) Compared to CTX: Table 5, IL-6, nHDF; for Relative Change (%) Compared to CTX / reduction of CTX-mediated increase of IL-6: CTX 0.025 ng/ml; for Relative Change (%) Compared to CTX / % reduction IL-6: UA 2.5 uM; for % reduction IL-6: Table 6, IL-6 concentration in cell supernatant, CTX vs CTX + treatment; for reduction of CTX-mediated increase of IL-6: nHDF, urolithin A 2.5 uM, 24 h pre-treatment + 24 h co-treatment
Procedure: The protective effects of urolithin A and Zinc against inflammation induced by a cytokines mix (Cytomix, CTX) in human dermal fibroblasts (nHDF cells) were investigated. A dose of 0.025 ng/ml of Cytokines mix was applied to induce inflammation, measured by quantifying the levels of the pro-inflammatory cytokine interleukin 6 (IL-6) in the cell culture supernatant. For the experiment, cells were first pre-treated with either i) urolithin A 2.5 uM, ii) Zinc at 100 uM, iii) a combination of urolithin A 2.5 uM and Zinc 100 uM, iv) or DMSO as control for 24 h. Then cells were co-treated with both CTX and either urolithin A or Zinc alone or in combination, as above. After 24h, IL-6 was measured in the cell supernatant to assess the ability of Urolithin A and Zinc to reduce Cytokines-induced inflammation.
Normal Human dermal fibroblasts (nHDF) purchased from Promocell (ref. C-12302) were seeded at 6000 cells per well in a 96 well plate (Greiner) using a DMEM Glutamax 1 g D-glucose (Gibco, ref 21885108) supplemented with FBS 10% (PanBiotech, ref P30-3033), 1% PenStrep (Biowest) and 1% Hepes (Biowest). All media were sterilized with a 0.45 μm filter unit (VWR). The day after the seeded cells were treated for 24 h with 1) Urolithin A (UA) resuspended in DMSO, Zinc gluconate (MedChemExpress Ref. HY-W145499) or a combination of the two at the indicated doses. Cytokine mix (“cytomix”) was added in addition of the previous treatment for another 24h, cytokines were used equally for a total and final concentration of 0.025 ng/ml (mIFN-g (roche ref.11276905001), TNF-α (Peprotech ref. 300-01A) and IL-b (Proteintech ref. 200-01B)). The medium was collected and an ELISA for Interleukin-6 were performed following the instruction provided by the supplier (Proteintech ref. KE10007). Finally, the absorbance at a wavelength of 450 nm was measured using a microplate plate reader (Fluostar Optima, BMG Labtech). IL-6 data were finally normalized over cell number, calculated with a cell viability assay (Promega, ref. G7571).

Compound	induced mitochondrial respiration (C2C12 myotubes)	% increase in maximal mitochondrial respiration (C2C12 myotubes)	Relative Change (%) Compared to DMSO 0.1% (C2C12 myotubes) [%]	Relative Change (%) Compared to CTX (interleukin 6 (IL-6)) [%]	% reduction IL-6 (interleukin 6 (IL-6)) [%]	reduction of CTX-mediated increase of IL-6 (interleukin 6 (IL-6)) [%]
O=c1oc2cc(O)ccc2c2ccc(O)cc12 [Urolithin A]	+8.5%	+8.5%	8.4	−25.05	25	25
Zinc gluconate				−29.57	−29.6	29.6
CC1=C(/C=C/C(C)=C/C=C/C(C)=C/C=C/C=C(C)/C=C/C=C(C)/C=C/C2=C(C)C(=O)[C@@H](O)CC2(C)C)C(C)(C)C[C@H](O)C1=O [Astaxanthin]	+3.2%	+3.3%	2.6			
